Source: ChEMBL document CHEMBL3421620, “A facile synthesis of novel miconazole analogues and the evaluation of their antifungal activity” (2015)
Values after ≈ are worked out from the molar mass of the structure shown.

Assays:
Type in all cases: functional
Candida albicans [1] = test: Antifungal activity against Candida albicans Strain 10 by broth microdilution method
Candida albicans [2] = test: Antifungal activity against Candida albicans Strain 11 by broth microdilution method
Candida albicans [3] = test: Antifungal activity against Candida albicans Strain 12 by broth microdilution method
Candida albicans [4] = test: Antifungal activity against Candida albicans Strain 13 by broth microdilution method
Candida albicans [5] = test: Antifungal activity against Candida albicans Strain 14 by broth microdilution method
Candida albicans [6] = test: Antifungal activity against Candida albicans Strain 15 by broth microdilution method
Candida albicans [7] = test: Antifungal activity against Candida albicans Strain 16 by broth microdilution method
Candida albicans [8] = test: Antifungal activity against Candida albicans Strain 17 by broth microdilution method
Candida albicans [9] = test: Antifungal activity against Candida albicans Strain 18 by broth microdilution method
Candida albicans [10] = test: Antifungal activity against Candida albicans Strain 19 by broth microdilution method
Candida albicans [11] = test: Antifungal activity against Candida albicans Strain 20 by broth microdilution method
Candida albicans [12] = test: Antifungal activity against Candida albicans Strain 21 by broth microdilution method
Candida albicans [13] = test: Antifungal activity against Candida albicans Strain 22 by broth microdilution method
Candida albicans [14] = test: Antifungal activity against Candida albicans Strain 23 by broth microdilution method
Candida albicans [15] = test: Antifungal activity against Candida albicans Strain 24 by broth microdilution method
Candida albicans [16] = test: Antifungal activity against Candida albicans Strain 25 by broth microdilution method
Candida albicans [17] = test: Antifungal activity against Candida albicans Strain 26 by broth microdilution method
Candida albicans [18] = test: Antifungal activity against Candida albicans Strain 27 by broth microdilution method
Candida albicans [19] = test: Antifungal activity against Candida albicans Strain 28 by broth microdilution method
Candida albicans [20] = test: Antifungal activity against Candida albicans Strain 29 by broth microdilution method
Candida albicans [21] = test: Antifungal activity against Candida albicans ATCC 10231 by broth microdilution method
Candida tropicalis = test: Antifungal activity against Candida tropicalis ATCC 13803 by broth microdilution method
Cyberlindnera jadinii = test: Antifungal activity against Candida utilis ATCC 9226 by broth microdilution method; settings: Williopsis jadinii
Yarrowia lipolytica = test: Antifungal activity against Candida lipolytica by broth microdilution method
Kluyveromyces marxianus = test: Antifungal activity against Candida pseudotropicalis by broth microdilution method
Pichia kudriavzevii = test: Antifungal activity against Candida krusei by broth microdilution method
Candida parapsilosis = test: Antifungal activity against Candida parapsilosis by broth microdilution method; settings: Lodderomyces parapsilosis
Nakaseomyces glabratus = test: Antifungal activity against Candida glabrata by broth microdilution method
Mucor hiemalis = test: Antifungal activity against Mucor hiemalis ATCC 8690 by broth microdilution method
Aspergillus fumigatus = test: Antifungal activity against Aspergillus fumigatus 16907 by broth microdilution method
[22] = Antifungal activity against Trichosporon cutaneum ATCC 28592 by broth microdilution method; settings: Cutaneotrichosporon cutaneum
Rhizopus arrhizus = test: Antifungal activity against Rhizopus oryzae ATCC 10329 by broth microdilution method
Candida albicans [23] = test: Antifungal activity against Candida albicans Strain 1 by broth microdilution method
Candida albicans [24] = test: Antifungal activity against Candida albicans Strain 2 by broth microdilution method
Candida albicans [25] = test: Antifungal activity against Candida albicans Strain 3 by broth microdilution method
Candida albicans [26] = test: Antifungal activity against Candida albicans Strain 4 by broth microdilution method
Candida albicans [27] = test: Antifungal activity against Candida albicans Strain 5 by broth microdilution method
Candida albicans [28] = test: Antifungal activity against Candida albicans Strain 6 by broth microdilution method
Candida albicans [29] = test: Antifungal activity against Candida albicans Strain 7 by broth microdilution method
Candida albicans [30] = test: Antifungal activity against Candida albicans Strain 8 by broth microdilution method
Candida albicans [31] = test: Antifungal activity against Candida albicans Strain 9 by broth microdilution method

Compound: COc1ccc(CCOC(Cn2ccnc2)c2ccc(Cl)cc2Cl)cc1OC (configuration not stated)
- MIC (Candida albicans [1]): 0.5 µg/mL (≈ 1.19 µM)
- MIC (Candida albicans [2]): 0.5 µg/mL (≈ 1.19 µM)
- MIC (Candida albicans [3]): 0.5 µg/mL (≈ 1.19 µM)
- MIC (Candida albicans [4]): 0.5 µg/mL (≈ 1.19 µM)
- MIC (Candida albicans [5]): 0.5 µg/mL (≈ 1.19 µM)
- MIC (Candida albicans [6]): 0.5 µg/mL (≈ 1.19 µM)
- MIC (Candida albicans [7]): 0.12 µg/mL (≈ 0.285 µM)
- MIC (Candida albicans [8]): 0.5 µg/mL (≈ 1.19 µM)
- MIC (Candida albicans [9]): 0.06 µg/mL (≈ 0.142 µM)
- MIC (Candida albicans [10]): 0.12 µg/mL (≈ 0.285 µM)
- MIC (Candida albicans [11]): 0.12 µg/mL (≈ 0.285 µM)
- MIC (Candida albicans [12]): 0.5 µg/mL (≈ 1.19 µM)
- MIC (Candida albicans [13]): 0.12 µg/mL (≈ 0.285 µM)
- MIC (Candida albicans [14]): 0.12 µg/mL (≈ 0.285 µM)
- MIC (Candida albicans [15]): 0.5 µg/mL (≈ 1.19 µM)
- MIC (Candida albicans [16]): 0.5 µg/mL (≈ 1.19 µM)
- MIC (Candida albicans [17]): 0.5 µg/mL (≈ 1.19 µM)
- MIC (Candida albicans [18]): 0.25 µg/mL (≈ 0.593 µM)
- MIC (Candida albicans [19]): 0.25 µg/mL (≈ 0.593 µM)
- MIC (Candida albicans [20]): 0.5 µg/mL (≈ 1.19 µM)
- MIC (Candida albicans [21]): 0.12 µg/mL (≈ 0.285 µM)
- MIC (Candida tropicalis): 1 µg/mL (≈ 2.37 µM)
- MIC (Cyberlindnera jadinii): 1 µg/mL (≈ 2.37 µM)
- MIC (Yarrowia lipolytica): 0.5 µg/mL (≈ 1.19 µM)
- MIC (Kluyveromyces marxianus): 1 µg/mL (≈ 2.37 µM)
- MIC (Pichia kudriavzevii): 2 µg/mL (≈ 4.75 µM)
- MIC (Candida parapsilosis): 2 µg/mL (≈ 4.75 µM)
- MIC (Nakaseomyces glabratus): 0.5 µg/mL (≈ 1.19 µM)
- MIC (Mucor hiemalis): > 16 µg/mL
- MIC (Aspergillus fumigatus): 4 µg/mL (≈ 9.49 µM)
- MIC [22]: 16 µg/mL (≈ 38 µM)
- MIC (Rhizopus arrhizus): > 16 µg/mL
- MIC (Candida albicans [23]): 0.5 µg/mL (≈ 1.19 µM)
- MIC (Candida albicans [24]): 0.5 µg/mL (≈ 1.19 µM)
- MIC (Candida albicans [25]): 0.12 µg/mL (≈ 0.285 µM)
- MIC (Candida albicans [26]): 0.06 µg/mL (≈ 0.142 µM)
- MIC (Candida albicans [27]): 0.5 µg/mL (≈ 1.19 µM)
- MIC (Candida albicans [28]): 0.12 µg/mL (≈ 0.285 µM)
- MIC (Candida albicans [29]): 0.5 µg/mL (≈ 1.19 µM)
- MIC (Candida albicans [30]): 0.12 µg/mL (≈ 0.285 µM)
- MIC (Candida albicans [31]): 0.5 µg/mL (≈ 1.19 µM)

Compound: O=C(O)C(OC(Cn1ccnc1)c1ccc(Cl)cc1Cl)c1ccccc1Cl (configuration not stated)
- MIC (Candida albicans [1]): 0.25 µg/mL (≈ 0.587 µM)
- MIC (Candida albicans [2]): 0.25 µg/mL (≈ 0.587 µM)
- MIC (Candida albicans [3]): 0.25 µg/mL (≈ 0.587 µM)
- MIC (Candida albicans [4]): 0.25 µg/mL (≈ 0.587 µM)
- MIC (Candida albicans [5]): 0.12 µg/mL (≈ 0.282 µM)
- MIC (Candida albicans [6]): 0.5 µg/mL (≈ 1.17 µM)
- MIC (Candida albicans [7]): 0.25 µg/mL (≈ 0.587 µM)
- MIC (Candida albicans [8]): 0.25 µg/mL (≈ 0.587 µM)
- MIC (Candida albicans [9]): 0.12 µg/mL (≈ 0.282 µM)
- MIC (Candida albicans [10]): 0.25 µg/mL (≈ 0.587 µM)
- MIC (Candida albicans [11]): 0.12 µg/mL (≈ 0.282 µM)
- MIC (Candida albicans [12]): 0.5 µg/mL (≈ 1.17 µM)
- MIC (Candida albicans [13]): 0.12 µg/mL (≈ 0.282 µM)
- MIC (Candida albicans [14]): 0.12 µg/mL (≈ 0.282 µM)
- MIC (Candida albicans [15]): 0.12 µg/mL (≈ 0.282 µM)
- MIC (Candida albicans [16]): 0.25 µg/mL (≈ 0.587 µM)
- MIC (Candida albicans [17]): 0.25 µg/mL (≈ 0.587 µM)
- MIC (Candida albicans [18]): 0.25 µg/mL (≈ 0.587 µM)
- MIC (Candida albicans [19]): 0.5 µg/mL (≈ 1.17 µM)
- MIC (Candida albicans [20]): 0.5 µg/mL (≈ 1.17 µM)
- MIC (Candida albicans [21]): 0.06 µg/mL (≈ 0.141 µM)
- MIC (Candida tropicalis): 0.5 µg/mL (≈ 1.17 µM)
- MIC (Cyberlindnera jadinii): 0.5 µg/mL (≈ 1.17 µM)
- MIC (Yarrowia lipolytica): 1 µg/mL (≈ 2.35 µM)
- MIC (Kluyveromyces marxianus): 1 µg/mL (≈ 2.35 µM)
- MIC (Pichia kudriavzevii): 0.5 µg/mL (≈ 1.17 µM)
- MIC (Candida parapsilosis): 1 µg/mL (≈ 2.35 µM)
- MIC (Nakaseomyces glabratus): 1 µg/mL (≈ 2.35 µM)
- MIC (Mucor hiemalis): > 16 µg/mL
- MIC (Aspergillus fumigatus): 8 µg/mL (≈ 18.8 µM)
- MIC [22]: > 16 µg/mL
- MIC (Rhizopus arrhizus): > 16 µg/mL
- MIC (Candida albicans [23]): 0.25 µg/mL (≈ 0.587 µM)
- MIC (Candida albicans [24]): 0.25 µg/mL (≈ 0.587 µM)
- MIC (Candida albicans [25]): 0.12 µg/mL (≈ 0.282 µM)
- MIC (Candida albicans [26]): 0.25 µg/mL (≈ 0.587 µM)
- MIC (Candida albicans [27]): 0.25 µg/mL (≈ 0.587 µM)
- MIC (Candida albicans [28]): 0.12 µg/mL (≈ 0.282 µM)
- MIC (Candida albicans [29]): 0.25 µg/mL (≈ 0.587 µM)
- MIC (Candida albicans [30]): 0.5 µg/mL (≈ 1.17 µM)
- MIC (Candida albicans [31]): 0.5 µg/mL (≈ 1.17 µM)
